Assay results reported in ChEMBL document CHEMBL3632469, “Discovery of dihydroquinazolinone derivatives as potent, selective, and CNS-penetrant M(1) and M(4) muscarinic acetylcholine receptors agonists” (Bioorg Med Chem Lett, 2015).

Legend:
[1] = molecular target: T1, Muscarinic acetylcholine receptor M2 (Homo sapiens) (UniProt P08172); assay: Agonist activity at human muscarinic M2 acetylcholine receptor expressed in CHO cells co-expressing Galpha16 assessed as calcium mobilization at 0.3 uM by FLIPR assay; type: functional, cell-based
T1 sequence (whole entry): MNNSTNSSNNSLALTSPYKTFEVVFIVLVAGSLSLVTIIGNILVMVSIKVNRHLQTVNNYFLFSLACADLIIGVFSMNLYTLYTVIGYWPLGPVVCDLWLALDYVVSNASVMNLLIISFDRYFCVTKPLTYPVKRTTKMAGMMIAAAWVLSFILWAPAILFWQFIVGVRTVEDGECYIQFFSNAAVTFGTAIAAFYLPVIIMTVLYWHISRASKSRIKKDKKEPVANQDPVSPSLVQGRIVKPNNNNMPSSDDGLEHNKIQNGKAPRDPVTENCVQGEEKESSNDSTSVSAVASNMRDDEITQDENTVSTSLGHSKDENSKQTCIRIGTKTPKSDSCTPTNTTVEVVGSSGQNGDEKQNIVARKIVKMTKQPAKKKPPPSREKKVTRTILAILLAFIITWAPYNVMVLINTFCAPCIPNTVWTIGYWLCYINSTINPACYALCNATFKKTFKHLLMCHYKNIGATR

[2] = molecular target: T2, Muscarinic acetylcholine receptor M4 (Homo sapiens) (UniProt P08173); assay: Partial agonist activity at human muscarinic M4 acetylcholine receptor expressed in CHO cells co-expressing Galpha16 assessed as calcium mobilization at 30 uM by FLIPR assay; type: functional, cell-based
T2 sequence (whole entry): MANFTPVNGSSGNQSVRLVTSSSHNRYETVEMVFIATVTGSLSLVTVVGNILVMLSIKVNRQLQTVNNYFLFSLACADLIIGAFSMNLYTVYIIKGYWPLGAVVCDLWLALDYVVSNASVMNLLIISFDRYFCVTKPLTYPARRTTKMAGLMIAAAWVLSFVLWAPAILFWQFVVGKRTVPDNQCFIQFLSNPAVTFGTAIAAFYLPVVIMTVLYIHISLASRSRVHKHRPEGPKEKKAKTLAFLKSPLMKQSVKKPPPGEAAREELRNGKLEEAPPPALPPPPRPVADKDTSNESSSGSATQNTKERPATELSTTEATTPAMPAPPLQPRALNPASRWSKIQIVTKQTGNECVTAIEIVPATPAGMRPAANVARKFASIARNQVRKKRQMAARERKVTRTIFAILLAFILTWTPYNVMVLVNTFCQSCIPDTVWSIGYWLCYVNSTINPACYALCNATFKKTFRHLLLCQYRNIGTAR

Cytochrome P450 2D6 = Cytochrome P450 2D6 (Homo sapiens, UniProt P10635); assay: Inhibition of CYP2D6 (unknown origin); type: ADME
[3] = molecular target: D(2) dopamine receptor (Homo sapiens) (UniProt P14416); assay: Binding affinity to dopamine D2 receptor (unknown origin) at 3 uM by radioligand-binding assay
[4] = molecular target: T1, Muscarinic acetylcholine receptor M2 (Homo sapiens); assay: Agonist activity at human muscarinic M2 acetylcholine receptor expressed in CHO cells co-expressing Galpha16 assessed as calcium mobilization at 30 uM by FLIPR assay; type: functional, cell-based
[5] = molecular target: Muscarinic acetylcholine receptor M4 (Homo sapiens, UniProt P08173); assay: Partial agonist activity at human muscarinic M4 acetylcholine receptor expressed in CHO cells co-expressing Galpha16 assessed as calcium mobilization by FLIPR assay; type: functional, cell-based
[6] = molecular target: Adenosine receptor A2a (Homo sapiens) (UniProt P29274); assay: Agonist activity at adenosine a2a receptor (unknown origin) expressed in CHO cells assessed as calcium mobilization at 3 uM; type: functional, cell-based
[7] = molecular target: Alpha-1B adrenergic receptor (Homo sapiens) (UniProt P35368); assay: Agonist activity at adrenergic a1B receptor (unknown origin) expressed in CHO cells assessed as calcium mobilization at 3 uM; type: functional, cell-based
[8] = molecular target: Alpha-2C adrenergic receptor (Homo sapiens) (UniProt P18825); assay: Agonist activity at adrenergic a2C receptor (unknown origin) expressed in CHO cells assessed as calcium mobilization at 3 uM; type: functional, cell-based
[9] = molecular target: D(2) dopamine receptor (Homo sapiens) (UniProt P14416); assay: Agonist activity at dopamine D2S receptor (unknown origin) expressed in CHO cells assessed as calcium mobilization at 3 uM; type: functional, cell-based
[10] = molecular target: D(4) dopamine receptor (Homo sapiens) (UniProt P21917); assay: Agonist activity at dopamine D4 receptor (unknown origin) expressed in CHO cells assessed as calcium mobilization at 3 uM; type: functional, cell-based
[11] = molecular target: Histamine H1 receptor (Homo sapiens) (UniProt P35367); assay: Agonist activity at histamine H1 receptor (unknown origin) expressed in CHO cells assessed as calcium mobilization at 3 uM; type: functional, cell-based
[12] = molecular target: Kappa-type opioid receptor (Homo sapiens) (UniProt P41145); assay: Agonist activity at ppiate kappa receptor (unknown origin) expressed in CHO cells assessed as calcium mobilization at 3 uM; type: functional, cell-based
[13] = molecular target: 5-hydroxytryptamine receptor 1F (Homo sapiens) (UniProt P30939); assay: Agonist activity at 5-HT1F receptor (unknown origin) expressed in CHO cells assessed as calcium mobilization at 3 uM; type: functional, cell-based
[14] = molecular target: 5-hydroxytryptamine receptor 5A (Homo sapiens) (UniProt P47898); assay: Agonist activity at 5-HT5a receptor (unknown origin) expressed in CHO cells assessed as calcium mobilization at 3 uM; type: functional, cell-based
[15] = molecular target: 5-hydroxytryptamine receptor 6 (Homo sapiens) (UniProt P50406); assay: Agonist activity at 5-HT6 receptor (unknown origin) expressed in CHO cells assessed as calcium mobilization at 3 uM; type: functional, cell-based
[16] = molecular target: Adrenergic receptor alpha-1 (Homo sapiens) (UniProt P35348+P25100+P35368); assay: Antagonist activity at adrenergic a1 receptor (unknown origin) expressed in CHO cells assessed as calcium mobilization at 3 uM; type: functional, cell-based
[17] = molecular target: Alpha-2A adrenergic receptor (Homo sapiens) (UniProt P08913); assay: Antagonist activity at adrenergic a2a receptor (unknown origin) expressed in CHO cells assessed as calcium mobilization at 3 uM; type: functional, cell-based
[18] = molecular target: D(2) dopamine receptor (Homo sapiens) (UniProt P14416); assay: Antagonist activity at dopamine D2L receptor (unknown origin) expressed in CHO cells assessed as calcium mobilization at 3 uM; type: functional, cell-based
[19] = molecular target: D(1B) dopamine receptor (Homo sapiens) (UniProt P21918); assay: Antagonist activity at dopamine D5 receptor (unknown origin) expressed in CHO cells assessed as calcium mobilization at 3 uM; type: functional, cell-based
[20] = molecular target: Delta-type opioid receptor (Homo sapiens) (UniProt P41143); assay: Antagonist activity at opiate delta1 receptor (unknown origin) expressed in CHO cells assessed as calcium mobilization at 3 uM; type: functional, cell-based
[21] = molecular target: 5-hydroxytryptamine receptor 1B (Homo sapiens) (UniProt P28222); assay: Antagonist activity at 5-HT1B receptor (unknown origin) expressed in CHO cells assessed as calcium mobilization at 3 uM; type: functional, cell-based
[22] = molecular target: 5-hydroxytryptamine receptor 1E (Homo sapiens) (UniProt P28566); assay: Antagonist activity at 5-HT1E receptor (unknown origin) expressed in CHO cells assessed as calcium mobilization at 3 uM; type: functional, cell-based
[23] = molecular target: 5-hydroxytryptamine receptor 2B (Homo sapiens) (UniProt P41595); assay: Antagonist activity at 5-HT2B receptor (unknown origin) expressed in CHO cells assessed as calcium mobilization at 3 uM; type: functional, cell-based
[24] = molecular target: 5-hydroxytryptamine receptor 6 (Homo sapiens) (UniProt P50406); assay: Antagonist activity at 5-HT6 receptor (unknown origin) expressed in CHO cells assessed as calcium mobilization at 3 uM; type: functional, cell-based

Chain of D(2) dopamine receptor (Homo sapiens) (P14416 whole entry): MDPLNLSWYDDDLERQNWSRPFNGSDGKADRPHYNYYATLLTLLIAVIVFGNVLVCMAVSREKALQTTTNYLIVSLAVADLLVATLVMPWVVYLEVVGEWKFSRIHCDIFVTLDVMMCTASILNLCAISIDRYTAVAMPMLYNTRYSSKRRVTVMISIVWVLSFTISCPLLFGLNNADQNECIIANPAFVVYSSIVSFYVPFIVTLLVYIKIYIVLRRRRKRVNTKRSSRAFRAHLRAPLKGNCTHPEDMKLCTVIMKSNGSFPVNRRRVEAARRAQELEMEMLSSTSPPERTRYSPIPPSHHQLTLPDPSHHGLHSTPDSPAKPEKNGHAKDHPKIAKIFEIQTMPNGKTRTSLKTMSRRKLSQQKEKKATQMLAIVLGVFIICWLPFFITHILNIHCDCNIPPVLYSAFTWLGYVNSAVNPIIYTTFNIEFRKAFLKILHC
Chain of 5-hydroxytryptamine receptor 6 (Homo sapiens) (P50406 whole entry): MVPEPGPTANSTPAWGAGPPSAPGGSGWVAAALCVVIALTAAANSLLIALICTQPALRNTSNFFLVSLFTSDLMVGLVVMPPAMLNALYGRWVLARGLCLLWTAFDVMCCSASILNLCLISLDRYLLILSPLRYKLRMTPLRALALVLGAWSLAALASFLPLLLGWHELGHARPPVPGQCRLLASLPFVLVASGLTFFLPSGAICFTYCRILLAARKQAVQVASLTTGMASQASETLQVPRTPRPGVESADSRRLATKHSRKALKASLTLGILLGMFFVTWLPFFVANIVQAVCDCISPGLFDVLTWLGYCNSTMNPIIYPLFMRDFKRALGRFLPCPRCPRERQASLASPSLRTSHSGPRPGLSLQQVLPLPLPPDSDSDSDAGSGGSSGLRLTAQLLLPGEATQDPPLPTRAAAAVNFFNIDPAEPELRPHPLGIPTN
Chain of 5-hydroxytryptamine receptor 1E (Homo sapiens) (P28566 whole entry): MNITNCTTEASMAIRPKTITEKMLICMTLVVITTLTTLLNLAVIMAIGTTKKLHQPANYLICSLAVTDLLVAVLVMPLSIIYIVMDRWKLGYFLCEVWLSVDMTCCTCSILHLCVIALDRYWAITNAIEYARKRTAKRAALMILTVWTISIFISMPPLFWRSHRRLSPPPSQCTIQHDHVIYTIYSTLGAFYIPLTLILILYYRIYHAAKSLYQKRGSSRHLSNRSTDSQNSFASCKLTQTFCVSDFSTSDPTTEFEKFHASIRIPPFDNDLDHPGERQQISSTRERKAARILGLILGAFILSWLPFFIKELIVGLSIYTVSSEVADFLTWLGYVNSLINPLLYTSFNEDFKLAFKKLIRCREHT
Chain of Alpha-1B adrenergic receptor (Homo sapiens) (P35368 whole entry): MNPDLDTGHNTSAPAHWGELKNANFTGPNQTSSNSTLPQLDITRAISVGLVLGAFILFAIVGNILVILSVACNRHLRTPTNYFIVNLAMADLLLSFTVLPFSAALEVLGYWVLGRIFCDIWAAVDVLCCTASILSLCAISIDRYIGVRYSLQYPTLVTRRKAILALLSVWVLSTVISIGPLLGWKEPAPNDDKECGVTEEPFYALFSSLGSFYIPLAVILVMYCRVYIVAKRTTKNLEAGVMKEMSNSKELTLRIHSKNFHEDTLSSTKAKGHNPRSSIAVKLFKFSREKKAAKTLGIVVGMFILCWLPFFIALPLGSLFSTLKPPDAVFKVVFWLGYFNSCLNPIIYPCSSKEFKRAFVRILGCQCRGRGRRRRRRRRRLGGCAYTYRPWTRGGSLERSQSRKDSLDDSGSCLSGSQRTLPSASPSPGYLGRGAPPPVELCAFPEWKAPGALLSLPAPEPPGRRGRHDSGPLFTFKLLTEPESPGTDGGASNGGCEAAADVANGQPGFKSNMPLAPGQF
Chain of D(1B) dopamine receptor (Homo sapiens) (P21918 whole entry): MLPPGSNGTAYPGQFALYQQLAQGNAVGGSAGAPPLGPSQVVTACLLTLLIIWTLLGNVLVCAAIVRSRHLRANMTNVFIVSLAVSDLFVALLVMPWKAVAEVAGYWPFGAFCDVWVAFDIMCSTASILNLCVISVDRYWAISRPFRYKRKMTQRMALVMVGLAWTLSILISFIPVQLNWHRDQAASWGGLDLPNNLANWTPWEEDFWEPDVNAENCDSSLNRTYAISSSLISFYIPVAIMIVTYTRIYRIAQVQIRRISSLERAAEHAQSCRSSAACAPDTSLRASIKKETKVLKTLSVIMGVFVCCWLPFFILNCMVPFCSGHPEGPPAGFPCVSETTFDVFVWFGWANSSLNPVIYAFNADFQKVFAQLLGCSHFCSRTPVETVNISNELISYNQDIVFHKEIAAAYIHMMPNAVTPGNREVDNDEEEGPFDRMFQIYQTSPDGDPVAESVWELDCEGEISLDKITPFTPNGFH
Chain of Cytochrome P450 2D6 (P10635 whole entry): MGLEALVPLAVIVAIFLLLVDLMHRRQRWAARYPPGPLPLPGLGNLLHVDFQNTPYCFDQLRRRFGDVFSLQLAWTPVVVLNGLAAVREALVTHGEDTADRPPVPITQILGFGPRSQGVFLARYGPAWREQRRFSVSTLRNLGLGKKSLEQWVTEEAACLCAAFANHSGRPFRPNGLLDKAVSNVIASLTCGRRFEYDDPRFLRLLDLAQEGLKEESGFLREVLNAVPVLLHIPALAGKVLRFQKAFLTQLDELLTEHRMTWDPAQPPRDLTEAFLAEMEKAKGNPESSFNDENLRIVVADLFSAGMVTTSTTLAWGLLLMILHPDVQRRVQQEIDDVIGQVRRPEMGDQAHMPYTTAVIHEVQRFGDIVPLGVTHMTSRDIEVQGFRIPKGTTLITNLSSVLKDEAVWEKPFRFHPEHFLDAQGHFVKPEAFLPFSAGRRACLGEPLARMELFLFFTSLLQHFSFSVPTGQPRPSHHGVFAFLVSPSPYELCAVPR
Chain of 5-hydroxytryptamine receptor 2B (Homo sapiens) (P41595 whole entry): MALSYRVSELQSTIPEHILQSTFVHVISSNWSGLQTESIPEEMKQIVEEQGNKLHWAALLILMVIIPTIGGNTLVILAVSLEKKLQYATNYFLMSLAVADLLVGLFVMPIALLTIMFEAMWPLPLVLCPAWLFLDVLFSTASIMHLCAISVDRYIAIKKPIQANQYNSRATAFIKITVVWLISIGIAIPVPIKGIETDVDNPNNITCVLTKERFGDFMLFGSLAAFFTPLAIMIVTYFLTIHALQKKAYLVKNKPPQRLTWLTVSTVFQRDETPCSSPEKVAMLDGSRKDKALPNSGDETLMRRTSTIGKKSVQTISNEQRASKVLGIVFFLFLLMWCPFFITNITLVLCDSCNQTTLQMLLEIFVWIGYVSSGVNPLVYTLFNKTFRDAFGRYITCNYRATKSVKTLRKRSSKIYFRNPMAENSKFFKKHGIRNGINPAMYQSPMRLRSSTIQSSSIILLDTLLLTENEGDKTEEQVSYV
Chain of 5-hydroxytryptamine receptor 1B (Homo sapiens) (P28222 whole entry): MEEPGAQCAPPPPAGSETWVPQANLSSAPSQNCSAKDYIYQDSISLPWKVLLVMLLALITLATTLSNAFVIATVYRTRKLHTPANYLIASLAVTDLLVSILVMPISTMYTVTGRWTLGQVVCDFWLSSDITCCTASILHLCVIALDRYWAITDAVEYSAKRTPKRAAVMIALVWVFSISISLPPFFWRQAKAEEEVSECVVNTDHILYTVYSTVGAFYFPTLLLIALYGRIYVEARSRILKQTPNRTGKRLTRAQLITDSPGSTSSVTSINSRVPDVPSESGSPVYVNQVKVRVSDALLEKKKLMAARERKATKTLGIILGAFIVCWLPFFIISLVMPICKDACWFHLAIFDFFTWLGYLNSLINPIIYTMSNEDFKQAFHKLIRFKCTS
Chain of Adenosine receptor A2a (Homo sapiens) (P29274 whole entry): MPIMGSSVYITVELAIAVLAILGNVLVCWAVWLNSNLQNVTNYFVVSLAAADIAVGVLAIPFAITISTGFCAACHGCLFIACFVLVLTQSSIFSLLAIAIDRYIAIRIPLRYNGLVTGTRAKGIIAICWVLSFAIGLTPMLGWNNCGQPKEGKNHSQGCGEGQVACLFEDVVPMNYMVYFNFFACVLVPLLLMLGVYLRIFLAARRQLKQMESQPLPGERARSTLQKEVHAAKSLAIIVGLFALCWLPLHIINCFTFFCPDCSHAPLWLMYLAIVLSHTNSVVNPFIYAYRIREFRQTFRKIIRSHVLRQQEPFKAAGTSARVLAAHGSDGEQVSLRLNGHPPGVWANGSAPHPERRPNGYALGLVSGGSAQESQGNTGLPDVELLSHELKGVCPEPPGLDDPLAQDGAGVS
Chain of D(4) dopamine receptor (Homo sapiens) (P21917 whole entry): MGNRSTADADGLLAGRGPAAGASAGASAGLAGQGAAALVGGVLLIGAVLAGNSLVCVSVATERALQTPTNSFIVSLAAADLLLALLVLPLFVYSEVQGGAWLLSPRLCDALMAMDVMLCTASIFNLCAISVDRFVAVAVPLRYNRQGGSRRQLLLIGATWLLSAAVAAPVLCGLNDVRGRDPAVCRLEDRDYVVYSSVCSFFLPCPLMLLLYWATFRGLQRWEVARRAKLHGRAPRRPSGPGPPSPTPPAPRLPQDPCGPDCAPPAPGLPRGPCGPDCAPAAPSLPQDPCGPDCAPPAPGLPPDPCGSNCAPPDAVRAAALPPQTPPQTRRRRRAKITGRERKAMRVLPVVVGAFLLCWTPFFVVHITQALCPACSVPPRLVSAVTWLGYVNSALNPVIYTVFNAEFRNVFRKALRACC
Chain of Histamine H1 receptor (Homo sapiens) (P35367 whole entry): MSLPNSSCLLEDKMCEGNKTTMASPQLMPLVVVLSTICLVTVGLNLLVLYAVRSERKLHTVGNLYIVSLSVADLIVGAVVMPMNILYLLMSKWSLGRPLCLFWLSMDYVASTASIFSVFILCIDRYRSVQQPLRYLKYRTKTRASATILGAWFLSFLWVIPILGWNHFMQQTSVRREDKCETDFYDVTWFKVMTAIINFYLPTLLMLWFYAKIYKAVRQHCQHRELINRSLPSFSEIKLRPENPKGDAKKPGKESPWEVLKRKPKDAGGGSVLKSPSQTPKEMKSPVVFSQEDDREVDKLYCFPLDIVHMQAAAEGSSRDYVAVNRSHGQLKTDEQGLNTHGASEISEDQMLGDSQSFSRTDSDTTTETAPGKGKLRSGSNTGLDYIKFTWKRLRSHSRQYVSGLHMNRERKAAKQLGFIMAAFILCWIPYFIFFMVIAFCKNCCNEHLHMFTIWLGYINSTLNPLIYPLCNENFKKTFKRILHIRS

Compound: CCOC(=O)N1[C@@H]2CC[C@H]1C[C@H](CN1CC[C@@H](N3Cc4ccccc4NC3=O)C1)C2
- Activity [1]: 1%
- Activity [2]: 51%
- IC50 (Cytochrome P450 2D6): > 2000 nM
- inhibition [3]: 13%
- Activity [4]: 3%
- EC50 [5]: 86 nM
- Activity [6]: 0.38%
- Activity [7]: 0.82%
- Activity [8]: -0.89%
- Activity [9]: -0.5%
- Activity [10]: -0.14%
- Activity [11]: 0.17%
- Activity [12]: -0.33%
- Activity [13]: -0.53%
- Activity [14]: -1.06%
- Activity [15]: -0.54%
- inhibition [16]: 5.57%
- inhibition [17]: 9.18%
- inhibition [18]: 13.2%
- inhibition [19]: -3.44%
- inhibition [20]: 20.9%
- inhibition [21]: 10.5%
- inhibition [22]: -0.04%
- inhibition [23]: 6.13%
- inhibition [24]: 1.97%
